From patent publication US20140296354A1, “SYNTHESIS OF PEPTOID-BASED SMALL MOLECULAR GELATORS FROM MULTIPLE COMPONENT REACTIONS” (OLD DOMINION UNIVERSITY RESEARCH FOUNDATION, priority 2013, published 2014) come the findings set out here.

A short description of data set [1]: Gelation test in solvents at room temperature. The conditions noted are these: for Gelation test result / minimum gelation concentration: room temperature; for MGC in DMSO:H2O (1:2): Table 2. It is filed as physicochemical. Also noted: key to Gelation test result: I, insoluble; P, precipitating; S, soluble at ~20 mg/mL; G, gel at room temperature; number is minimum gelation concentration. Here is the method: (§1) Gelation tests were performed by adding incremental amounts of compounds to a solvent or solvent system at room temperature and observing the results (i.e., gel formation, solubility of compounds, insolubility of compounds, or formation of a precipitate). […] The term “precipation” means that the compound dissolves upon heating and sonicating, however, it crashes out of solution when the heat is removed.
(§2) After the compounds were synthesized, they were screened for gelation properties. […] For the compounds with new chiral centers, they formed gels in aqueous environment preferentially.

Data set [2] can be described thus: Gel melting temperatures. Format: physicochemical. As to conditions: gel in DMSO:H2O (1:2) at its minimum gelation concentration. Here is the method:
Melting points were measured for compounds that were gelators in the DMSO:H2O (1:2) solvent system. In general, a compound was dissolved in heated solvent in a small vial at its minimum gelation concentration and transferred into a tube (e.g., an NMR tube) while the mixture was still warm. The tube was sonicated and cooled until a stable gel formed. The tube was immersed in an oil bath and the temperature of the solid-to-liquid phase transition was monitored using a thermometer as the oil bath temperature was changed. Gel melting temperatures are presented in […]

Data set [3] can be described thus: Gelation test in solvents at room temperature. It is filed as physicochemical. Also noted: key: S, soluble (starting test at 20 mg/mL); I, insoluble; P, precipitate; G, stable gel, the numbers after G are preliminary MGCs in mg/mL; UG, slightly unstable gels or partial gels, concentrations are 20 mg/mL unless otherwise noted. The conditions noted are these: Table 3. Here is the method:
as §1, §2

The nature of data set [4]: Gelation test in solvents at room temperature. Format: physicochemical. Also noted: key: I, insoluble; P, precipitating; S, soluble at ~20 mg/mL; G, gel at room temperature; number is minimum gelation concentration. As to conditions: Hexane; Table 3. Here is the method:
as §1, §2

Usually melting point stands for the temperature, or range, at which the solid turns liquid. In turn, `CC(=O)N(CC(=O)NC1CCCCC1)Cc1ccccc1` [Compound 14, N-benzyl-N-(2-(cyclohexylamino)-2-oxoethyl)acetamide] came in with a melting point of 122 to 124 °C. Besides, the Gelation test result in data set [1] (DMSO:H2O (1:1)) is “S (S, soluble at ~20 mg/mL)”. Moreover, in data set [1] (DMSO:H2O (1:2)), the Gelation test result is given as “P”. For the same compound, the Gelation test result in data set [1] (EtOH) was “S (S, soluble at ~20 mg/mL)”. For the same compound, the Gelation test result in data set [1] (EtOH:H2O (1:1)) is “S (S, soluble at ~20 mg/mL)”. The Gelation test result in data set [1] (EtOH:H2O (1:2)) is “P”. Besides, the Gelation test result in data set [1] (H2O) is listed as “P”. Further, the Gelation test result in data set [1] (Hexane) is on record as “I^(a)”.

With `C#CCCC(=O)N(CC(=O)NC1CCCCC1)Cc1ccccc1` [Compound 15, N-benzyl-N-(2-(cyclohexylamino)-2-oxoethyl)pent-4-ynamide], the melting point was 138 to 140 °C. Moreover, in data set [1] (DMSO:H2O (1:1)), the Gelation test result is “G” and the minimum gelation concentration came out at 20.0 mg/mL. Moreover, in data set [1] (DMSO:H2O (1:2)), the Gelation test result is given as “G”, the minimum gelation concentration is 20.0 mg/mL and the “MGC in DMSO:H2O (1:2)” value is reported as 20.0 mg/mL. Besides, the Gelation test result in data set [1] (EtOH) was “P”. Further, the Gelation test result in data set [1] (EtOH:H2O (1:1)) was “P”. In addition, in data set [1] (EtOH:H2O (1:2)), the Gelation test result was “G” and the minimum gelation concentration is listed as 20.0 mg/mL. The Gelation test result in data set [1] (H2O) is on record as “S (S, soluble at ~20 mg/mL)”. The Gelation test result in data set [1] (Hexane) is “P^(b)”. Also, in data set [2], the “T1, temperature at which gel begins to melt” value (“T1, temperature” for short) stood at 95 °C; the “T2, temperature at which gel is approximately half melted” value (shortened to “T2, temperature”) worked out at 100 °C; the “T3, temperature at which gel is fully melted” value (from here on “T3, temperature”) turned out to be 110 °C.

For the compound `O=C(CN(Cc1ccccc1)C(=O)c1ccccc1)NC1CCCCC1` [Compound 16, N-benzyl-N-(2-(cyclohexylamino)-2-oxoethyl)benzamide], the melting point lay within 104 to 106 °C. Also, in data set [1] (DMSO:H2O (1:1)), the Gelation test result is reported as “P”. Moreover, the Gelation test result in data set [1] (DMSO:H2O (1:2)) is “P”. In data set [1] (EtOH), the Gelation test result is “P”. In addition, the Gelation test result in data set [1] (EtOH:H2O (1:1)) is reported as “P”. Besides, the Gelation test result in data set [1] (EtOH:H2O (1:2)) is “P”. Besides, the Gelation test result in data set [1] (H2O) is “I”. In addition, the Gelation test result in data set [1] (Hexane) was “I”.

On to `O=C(CN(Cc1ccccc1)C(=O)c1ccc(Br)cc1)NC1CCCCC1` [Compound 17, N-benzyl-4-bromo-N-(2-(cyclohexylamino)-2-oxoethyl)benzamide], for which the melting point was 168 to 170 °C. Moreover, in data set [1] (DMSO:H2O (1:1)), the Gelation test result is listed as “G” and the minimum gelation concentration is 10.0 mg/mL. Further, in data set [1] (DMSO:H2O (1:2)), the Gelation test result is reported as “G”, the minimum gelation concentration is on record as 5.0 mg/mL and the “MGC in DMSO:H2O (1:2)” value is listed as 5.0 mg/mL. The Gelation test result in data set [1] (EtOH) is “S (S, soluble at ~20 mg/mL)”. In data set [1] (EtOH:H2O (1:1)), the Gelation test result is reported as “G” and the minimum gelation concentration was found to be 20.0 mg/mL. Further, the Gelation test result in data set [1] (EtOH:H2O (1:2)) is “P”. The Gelation test result in data set [1] (H2O) is recorded as “P”. Further, the Gelation test result in data set [1] (Hexane) is on record as “I”. Besides, in data set [2], the “T1, temperature” value was 78 °C; the “T2, temperature” value was 80 °C; the “T3, temperature” value stood at 90 °C.

On to `C[C@H](c1ccccc1)N(CC(=O)NC1CCCCC1)C(=O)c1ccc(Br)cc1` [Compound 19, (R)-4-bromo-N-(2-(cyclohexylamino)-2-oxoethyl)-N-(1-phenylethyl)benzamide], for which the melting point fell in the range of 140 to 142 °C. In data set [1] (DMSO:H2O (1:1)), the Gelation test result is listed as “G” and the minimum gelation concentration amounted to 20.0 mg/mL. In data set [1] (DMSO:H2O (1:2)), the Gelation test result is recorded as “P”. Also, the Gelation test result in data set [1] (EtOH) was “S (S, soluble at ~20 mg/mL)”. In data set [1] (EtOH:H2O (1:1)), the Gelation test result is given as “P”. Also, in data set [1] (EtOH:H2O (1:2)), the Gelation test result was “P”. For the same compound, in data set [1] (H2O), the Gelation test result is on record as “P”. Further, the Gelation test result in data set [1] (Hexane) is “S^(c) (S, soluble at ~20 mg/mL)”.

For the compound `COc1ccc(CN(CC(=O)NC2CCCCC2)C(=O)c2ccc(Br)cc2)cc1` [Compound 20, N-(4-methoxybenzyl)-4-bromo-N-(2-(cyclohexylamino)-2-oxoethyl)benzamide], the melting point is 174 to 176 °C. In data set [1] (DMSO:H2O (1:1)), the Gelation test result is recorded as “G” and the minimum gelation concentration is 5.0 mg/mL. For the same compound, in data set [1] (DMSO:H2O (1:2)), the Gelation test result is “G”, the minimum gelation concentration was 6.6 mg/mL and the “MGC in DMSO:H2O (1:2)” value turned out to be 6.6 mg/mL. Besides, in data set [1] (EtOH), the Gelation test result is on record as “P”. In data set [1] (EtOH:H2O (1:1)), the Gelation test result is listed as “G” and the minimum gelation concentration worked out at 10.0 mg/mL. For the same compound, in data set [1] (EtOH:H2O (1:2)), the Gelation test result is given as “P”. For the same compound, the Gelation test result in data set [1] (H2O) is listed as “P”. Besides, the Gelation test result in data set [1] (Hexane) is “P”. Further, in data set [2], the “T1, temperature” value is 91 °C; the “T2, temperature” value amounted to 110 °C; the “T3, temperature” value came to 120 °C.

In the case of `CCOC(=O)CNC(=O)CN(Cc1ccc(OC)cc1)C(=O)c1ccccc1` [Compound 23, Ethyl 2-(2-(N-(4-methoxybenzyl)benzamido)acetamido)acetate], the melting point is 94 to 96 °C. For the same compound, the Gelation test result in data set [1] (DMSO:H2O (1:1)) is “P”. In addition, in data set [1] (DMSO:H2O (1:2)), the Gelation test result is on record as “G”, the minimum gelation concentration turned out to be 20.0 mg/mL and the “MGC in DMSO:H2O (1:2)” value is 20.0 mg/mL. Also, the Gelation test result in data set [1] (EtOH) is on record as “S (S, soluble at ~20 mg/mL)”. Besides, the Gelation test result in data set [1] (EtOH:H2O (1:1)) is “P”. In addition, in data set [1] (EtOH:H2O (1:2)), the Gelation test result is given as “P”. Besides, in data set [1] (H2O), the Gelation test result is given as “S (S, soluble at ~20 mg/mL)”. In data set [1] (Hexane), the Gelation test result is reported as “I”. Besides, in data set [2], the “T1, temperature” value stood at 50 °C; the “T2, temperature” value came to 52 °C; the “T3, temperature” value was 58 °C.

`COC1OC2COC(c3ccccc3)OC2C(O)C1N(CC(=O)NC1CCCCC1)C(=O)c1ccccc1` (stereo not shown) [Compound 24, N-(2-(cyclohexylamino)-2-oxoethyl)-N-(8-hydroxy-6-methoxy-2-phenyl-hexahydropyrano[3,2-d][1,3]dioxin-7-yl)benzamide] registered a melting point of 261 to 263 °C. Besides, in data set [1] (DMSO:H2O (1:1)), the Gelation test result was “P”. Moreover, in data set [1] (DMSO:H2O (1:2)), the Gelation test result is listed as “P”. In data set [1] (EtOH), the Gelation test result is recorded as “G” and the minimum gelation concentration is 20.0 mg/mL. The Gelation test result in data set [1] (EtOH:H2O (1:1)) is given as “P”. Further, in data set [1] (EtOH:H2O (1:2)), the Gelation test result was “G” and the minimum gelation concentration worked out at 20.0 mg/mL. Also, the Gelation test result in data set [1] (H2O) is “I”. Besides, in data set [1] (Hexane), the Gelation test result is recorded as “P”.

`COC1OC2COC(c3ccccc3)OC2C(O)C1N(CC(=O)NC1CCCCC1)C(=O)c1ccc(Br)cc1` (stereo not shown) [Compound 25, 4-Bromo-N-(2-(cyclohexylamino)-2-oxoethyl)-N-(8-hydroxy-6-methoxy-2-phenyl-hexahydropyrano[3,2-d][1,3]dioxin-7-yl)benzamide]: the melting point lay within 291 to 293 °C. In addition, in data set [1] (DMSO:H2O (1:1)), the Gelation test result is reported as “G” and the minimum gelation concentration turned out to be 20.0 mg/mL. In addition, the Gelation test result in data set [1] (DMSO:H2O (1:2)) was “P”. For the same compound, in data set [1] (EtOH), the Gelation test result is on record as “G” and the minimum gelation concentration amounted to 20.0 mg/mL. Moreover, in data set [1] (EtOH:H2O (1:1)), the Gelation test result is “G” and the minimum gelation concentration is listed as 20.0 mg/mL. In data set [1] (EtOH:H2O (1:2)), the Gelation test result is “G” and the minimum gelation concentration is recorded as 20.0 mg/mL. Moreover, the Gelation test result in data set [1] (H2O) is recorded as “I”. Besides, the Gelation test result in data set [1] (Hexane) is given as “P”.

For the compound `O=C(O)CNC(=O)CN(Cc1ccccc1)C(=O)c1ccc(C(=O)N(CC(=O)NCC(=O)O)Cc2ccccc2)cc1` [Compound 43], the “concentration of slightly unstable or partial gel (UG)” value in data set [1] (DMSO:H2O 1:1, Table 3) came out at 20000 µg/mL; in data set [1] (DMSO:H2O 1:2, Table 3), 20000 µg/mL. Further, the Gelation result in data set [1] (EtOH, Table 3) is recorded as “S (S, soluble (starting test at 20 mg/mL))”; in data set [3] (DMSO:H2O 1:1) it was “UG”; in data set [3] (DMSO:H2O 1:2), “UG”; in data set [3] (Water) it was “P”; in data set [4], “I”.
